We go through ten compounds from patent US7790762B2, “Compounds and methods for thiol-containing compound efflux and cancer treatment” (National Jewish Health, priority 2002, dated 2010).

Read-outs that look alike come from different tables or passages of the source.

Common to all, as to assay type: cell-based, human
For experiment [1], the system named is HL-60 cells. In words: Intracellular GSH levels by HPLC-EC in HL-60 cells. As to the method:
(§1) Cell lines and culture conditions. Human lung epithelial cancer (A549), human leukemia HL-60 and human prostate (PC-3) tumor cells were purchased from ATCC (Manassas, Va.). A549 and PC-3 cells were grown in Ham's F12 medium (F12) and Kaighn's modification of Ham's F12 medium (F12K) with 2 mM L-glutamine (ATCC), respectively, supplemented with 10% fetal bovine serum (FBS) and 5% pen/strep (10,000 unit, Cellgro). HL-60 cells were grown in Iscove's modified Dulbecco's medium with 4 mM L-glutamine (ATCC) supplemented with 20% FBS and 5% pen/strep. Cell were grown in T-75 flask at 37° C. and 5% CO2 air atmosphere and in 24-well plates for GSH levels and LDH release measurements.
(§2) Intracellular levels of GSH. Intracellular GSH levels can be determined by HPLC-EC. Cultured cells from 24-well plates were washed once with 1 ml of PBS and then re-suspended in 0.5 ml of distilled water with 40 μM of digitonin (2 mM stock solution in DMSO) for 30 min at room temperature. Then, 50 μl of 10% meta-phosphoric acid were added (1% final concentration), the samples were sonicated for 2 min, centrifuged at 20,000 g for 10 min, and 0.2 ml of supernatant placed in vials for HPLC analysis. […] The flow rate was […]. The retention time for GSH in these conditions was 7.5 min. The HPLC instrument was from ESA, Inc. (Chelmsford, Mass.), equipped with an autosampler (model 540) and a Coul array detector (model 5600A). The potential applied was +0.75 V vs. H/Pd electrode, and the injection volume 5 μl.

Experiment [2] concerns PC-3 cells. In words: Cytotoxicity as LDH release in PC-3 cells. The settings on record: PC-3, 50 μM, 48 hours treatment. As to the method: as §1
(§3) Assessment of cytotoxicity. In one exemplary method, membrane integrity of A549, HL-60 and PC-3 cells was used as an index of drug-induced cytotoxicity, and was assessed by monitoring the release of cytosolic lactate dehydrogenase (LDH). LDH activity was measured in the culture medium and cell lysates (50 mM HEPES, Triton X-100 0.5%, pH 7) using a plate reader format as previously described (41). Briefly, 5 μl of cell culture supernatant and lysates were incubated with 0.24 mM NADH in a Tris/NaCl pH 7.2 buffer in 96-well plates for 5 min at 25° C. The reaction was started by the addition of 9.8 mM pyruvate and the consumption of NADH followed at 340 nm for 5 min at 30° C. Percent LDH release was calculated by the following: (supernatant LDH/supernatant LDH+lysate LDH)×100.
(In general: Release of lactate dehydrogenase indicates damage to the cell membrane.)

Experiment [3] concerns HL-60 cells. In words: Cytotoxicity as LDH release in HL-60 cells. The following applies: 48 hours treatment. As to the method:
as §1, §3

The subject of experiment [4] is PC-3 cells. In words: Intracellular GSH levels by HPLC-EC in PC-3 cells. As to the method: as §1, §2
For experiment [5], the system named is A549 cells. In words: Cytotoxicity as LDH release in A549 cells. The settings on record: A549, 75 μM, 48 hours treatment. The protocol:
as §1, §3

The subject of experiment [6] is A549 cells. In words: Intracellular GSH levels by HPLC-EC in A549 cells. The settings on record: for activity at 25 µM: read-out: Intracellular GSH levels, % compared to control. The protocol: as §1, §2
[7] abbreviates: Homo sapiens, read-out: LDH rel. % con.
Where [8] appears, read: PC-3, 25 μM, 24 hours treatment.

`O=c1c(O)c(-c2cc(O)c(O)c(O)c2)oc2cc(O)cc(O)c12` [Myricetin]: the “Int. GSH % con.” value in the experiment on HL-60 cells [1] (HL-60, 75 μM, 24 hours treatment) came to 27 % con; with PC-3 cells [4] (PC-3, 50 μM, 24 hours treatment) it was 111 % con; with A549 cells [6] (A549, 75 μM, 24 hours treatment) it was 55 % con. Besides, the “LDH rel. % con.” value in the experiment with PC-3 cells [2] came to 93 % con; in the experiment with HL-60 cells [3] (HL-60, 50 μM), 139 % con; with A549 cells [5], 206 % con.

Take `COc1cc(/C=C/C(=O)CC(=O)/C=C/c2ccc(O)c(OC)c2)ccc1O` [Curcumin, reference compound]: the activity at 25 µM is 221% in the experiment on HL-60 cells [1] (Homo sapiens, HL-60, 25 μM, 24 hours treatment, read-out: Int. GSH % con.) and 170% with PC-3 cells [4] (Homo sapiens, PC-3, 25 μM, 24 hours treatment, read-out: Int. GSH % con.). Moreover, the LDH release, % of control at 50 µM in the experiment with PC-3 cells [2] (setting [7]) amounted to 180%. Moreover, the LDH release, % of control at 25 µM in the experiment on HL-60 cells [3] (Homo sapiens, HL-60, 25 μM, read-out: LDH rel. % con.) is 180%. For the same compound, the LDH release, % of control at 75 µM with A549 cells [5] (setting [7]) is 140%. Further, the activity at 50 µM in the experiment on A549 cells [6] (Homo sapiens, A549, 50 μM, 24 hours treatment, read-out: Int. GSH % con.) stood at 53%.

For the compound `O=c1c(O)c(-c2ccc(O)c(O)c2)oc2cc(O)cc(O)c12` [Quercetin], the “Int. GSH % con.” value was 94 % con in the experiment with HL-60 cells [1] (HL-60, 50 μM, 24 hours treatment); 95 % con in the experiment on PC-3 cells [4] (setting [8]); 36 % con in the experiment on A549 cells [6] (A549, 25 μM, 24 hours treatment). Also, the “LDH rel. % con.” value in the experiment with PC-3 cells [2] is recorded as 80 % con; in the experiment with HL-60 cells [3] (HL-60, 50 μM), 157 % con; in the experiment with A549 cells [5] it was 175 % con. Further, the “Intracellular GSH levels, % compared to control” value (shortened to “Intracellular GSH levels, %”) in the experiment on A549 cells [6] (A549, 25 μM, 4 h) is 51.0 ± 0.7%.

Consider `C[C@]12CC[C@@H]3c4ccc(O)cc4CC[C@H]3[C@@H]1CC[C@@H]2O` [β-Estradiol, β-estradiol, reference compound], for which the “Int. GSH % con.” value amounted to 70 % con in the experiment on HL-60 cells [1] (HL-60, 25 μM, 24 hours treatment); 98 % con with PC-3 cells [4] (setting [8]); 41 % con in the experiment with A549 cells [6] (A549, 50 μM, 24 hours treatment). In addition, the “LDH rel. % con.” value in the experiment with HL-60 cells [3] (HL-60, 25 μM) was determined as 120 % con.

Consider `O=C(/C=C/c1ccccc1O)c1ccccc1O` [2′,2-DHC, 2′ 2 dihydroxychalcone], for which the “Intracellular GSH levels, %” value with A549 cells [6] (A549, 25 μM, 2 h) is listed as less than 5%; in the experiment on A549 cells [6] (A549, 25 μM, 4 h), less than 5%.

With `O=c1cc(-c2ccccc2)oc2cccc(O)c12` [5-HF, 5-hydroxyflavone], the “effect on intracellular GSH (words)” value in the experiment with A549 cells [6] (A549 cells) is recorded as “less effective”. Further, the activity at 25 µM in the experiment on A549 cells [6] (Homo sapiens, A549, 25 μM, 4 h) turned out to be 44.7 ± 3.4%.

Consider `O=C(/C=C/c1ccccc1O)c1ccccc1` [2-HC, 2-hydroxychalcone], for which the activity at 25 µM in the experiment on A549 cells [6] (Homo sapiens, A549, 25 μM, 2 h) is less than 5%; in the experiment on A549 cells [6] (Homo sapiens, A549, 25 μM, 4 h), less than 5%.

Consider `O=C(/C=C/c1ccccc1)c1ccc(O)cc1` [4′-HC, 4′-hydroxychalcone], for which the “intracellular GSH levels compared to control” value with HL-60 cells [1] (HL-60 cells, 25 μM, 24 hours of treatment (FIG. 19B)) was 215%; with PC-3 cells [4] (PC-3 cells, 25 μM, 24 hours of treatment (FIG. 19B)) it was 164%. Besides, the activity at 25 µM in the experiment with A549 cells [6] (Homo sapiens, A549, 25 μM, 2 h) was 35.6 ± 2.9%; in the experiment with A549 cells [6] (Homo sapiens, A549, 25 μM, 4 h) it was less than 5%.

For the compound `O=C(/C=C/c1ccc(O)cc1)c1ccc(O)cc1O` [2′,4′,4-THC, 2′,4′,4 trihydroxychalcone], the activity at 25 µM in the experiment on A549 cells [6] (Homo sapiens, A549, 25 μM, 2 h) is 6.8 ± 0.2%; in the experiment on A549 cells [6] (Homo sapiens, A549, 25 μM, 4 h), less than 5%.

For `O=C(/C=C/c1ccccc1)c1ccc(O)cc1O` [2′,4′-DHC, 2′ 4′ dihydroxychalcone], the “Intracellular GSH levels, %” value with A549 cells [6] (A549, 25 μM, 2 h) is recorded as 22.0 ± 1.8%; in the experiment on A549 cells [6] (A549, 25 μM, 4 h), less than 5%.
